Experimental data as given in patent US10556907B2 (AbbVie Inc., priority 2015, dated 2020).

Experiments:
human S1PR4 receptor = biological target: T1, human S1PR4 receptor (Homo sapiens, UniProt O95977); experiment: Method 1: intracellular Ca2+ release (FLIPR, Calcium 5) in recombinant CHO-K1 cells; type: cell-based; details: (1): determined with method 1; read-out: S1P4 EC50
T1 construct: host or cells: CHO-K1
T1 sequence (O95977 1-384): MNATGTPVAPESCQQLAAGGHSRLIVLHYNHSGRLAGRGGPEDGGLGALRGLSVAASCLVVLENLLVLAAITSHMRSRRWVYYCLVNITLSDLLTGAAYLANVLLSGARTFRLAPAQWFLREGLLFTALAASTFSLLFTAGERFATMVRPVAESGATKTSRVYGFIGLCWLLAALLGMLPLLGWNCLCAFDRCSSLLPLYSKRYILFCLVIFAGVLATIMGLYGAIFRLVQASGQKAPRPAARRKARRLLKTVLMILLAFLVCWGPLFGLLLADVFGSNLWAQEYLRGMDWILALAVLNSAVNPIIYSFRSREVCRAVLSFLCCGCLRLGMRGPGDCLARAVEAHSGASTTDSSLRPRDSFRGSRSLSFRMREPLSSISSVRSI
Outline: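 CHO-K1 cells co-expressing the receptor, aequorin and Gq/i5 were loaded with Calcium 5 dye 1 h at 37° C, then held 45 min at RT. Serially diluted compounds added in HBSS/20 mmol/L Hepes/2.5 mmol/L probenecid/0.1% BSA pH 7.4. FLIPR Tetra fluorescence, normalized to phospho-fingolimod, fitted for EC50.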

[1] = biological target: T2, human EDG1 (S1PR1) receptor (Homo sapiens, UniProt P21453); experiment: Method 2: Aequorin assay, cell clone CHO-A21-Edg1 #17; type: cell-based; details: (2): determined with method 2; read-out: S1P1 EC50
T2 construct: expressed in transfected cells; host or cells: CHO (clone CHO-A21-Edg1 #17)
Method: (§1) Agonistic activity was measured using two different methods, described below.
(§2) Genetically Engineered Cells
(§3) Cell clone CHO-A21-Edg1 #17 carries the transgenes human EDG1 (S1PR1) receptor (Accession number NP_001391.2), mitochondrially targeted Aequorin (active part corresponds to accession number 1SL8_A) and chimaeric Gaqi5=Gaq modified with the 5 C-terminal amino-acids replaced with those of the Gai protein (DCGLF). CHO-A2-S1P3 Mix is a cell pool ectopically expressing human EDG3 (S1PR3) receptor (Accession number NP_005217.2) mitochondrially targeted Aequorin (active part has a sequence similar to accession number AY601106.1) and GNA16 (Accession number NP_002059.3). Cell clone CHO-A21-EDG8 #12 carries the transgenes human EDG8 (S1PR5) receptor (Accession number NP_110387.1), mitochondrially expressed Aequorin (active part corresponds to accession number 1SL8_A) and chimaeric Gaqi5 (Gaq modified to present the 5 last amino-acids of the Gai protein “DCGLF”; see above). Cells are grown to mid-log phase in culture medium (HAM's F12, 10% FBS, 100 IU/mL penicillin, 100 μg/mL streptomycin, 250 μg/mL Zeocin, 400 μg/mL G418). 18 hours prior to frozen cells preparation, the medium is changed to remove the antibiotics.
(§4) 18 hours prior to the test, vials of frozen cells are quickly thawed in a 37° C. water bath, cells are recovered by centrifugation and resuspended in assay buffer (DMEM/HAM's F12 with HEPES, without phenol red+0.1% fatty acid-free BSA). Cells are gently agitated in suspension overnight at RT in presence of 5 μM of Coelenterazine h (Molecular Probes). On the day of the test, cells are diluted to their final working concentrations in assay buffer and agitated in suspension for 1 h at RT. Cells are then placed in the luminescence reader (Hamamatsu Functional Drug Screening System 6000, FDSS6000). During cells incubation, compounds are prepared in 100% DMSO, and subsequently diluted in assay buffer. Compounds are then dispensed in the assay plate (black, clear-bottom, 384-well plate). After binding of agonists to the human S1P receptor the intracellular calcium concentration increases and binding of calcium to the Aequorin/Coelenterazine complex leads to an oxidation reaction of coelenterazine, which results in the production of […], coelenteramide, CO2 and light (Dmax 469 nm). The luminescent response is dependent on the agonist concentration. For agonist testing, 30 μL of cell suspension are injected on 30 μL of test compound or reference agonist in the assay plate. The resulting emission of light is recorded for 90 seconds using the FDSS6000. Dose response curves with the reference compounds are performed before testing the compounds. S1P is the reference agonist and JTE-013 the reference antagonist for S1P2. […]
(§5) Luminescence data are integrated over the reading interval for agonist and antagonist modes. To standardize the emission of recorded light (determination of the “100% signal”) across plates and across different experiments, some of the wells contain 100 μM digitonin or a saturating concentration of ATP (20 μM). Plates also contain the reference agonist at a concentration equivalent to the EC80 obtained during the test validation and the EC100. Dose-response data from test compounds were analyzed with XLfit (IDBS) software using nonlinear regression applied to a sigmoidal dose-response model and the following equation: • XL Fit fit Model 203: 4 Parameter Logistic Model • A: Bottom • B: TOP • C: LogEC50 • D: Hill fit=(A+((B−A)/(1+(((10^C)/x)^D)))) inv=((10^C)/((((B−A)/(y−A))−1)^(1/D))) res=(y−fit)

[2] = biological target: T3, human EDG8 (S1PR5) receptor (Homo sapiens, UniProt Q9H228); experiment: Method 2: Aequorin assay, cell clone CHO-A21-EDG8 #12; type: cell-based; details: agonist potency, determined with method 2 (symbols E-G); read-out: S1P5 EC50 range
T3 construct: expressed in transfected cells; host or cells: CHO (clone CHO-A21-EDG8 #12)
Method: as §1, §2, §3, §4, §5

[3] = biological target: T4, human EDG3 (S1PR3) receptor (Homo sapiens, UniProt Q99500); experiment: Method 2: Aequorin assay, cell pool CHO-A2-S1P3 Mix; type: cell-based; details: (2): determined with method 2
T4 construct: expressed in transfected cells; host or cells: CHO (cell pool CHO-A2-S1P3 Mix)
Method: as §1, §2, §3, §4, §5

monocytes = details: cited from earlier work
[4] = in vivo; cited from earlier work
[5] = in vivo; cited from earlier work; remark: listed apart in the source

T3 sequence (Q9H228 whole entry): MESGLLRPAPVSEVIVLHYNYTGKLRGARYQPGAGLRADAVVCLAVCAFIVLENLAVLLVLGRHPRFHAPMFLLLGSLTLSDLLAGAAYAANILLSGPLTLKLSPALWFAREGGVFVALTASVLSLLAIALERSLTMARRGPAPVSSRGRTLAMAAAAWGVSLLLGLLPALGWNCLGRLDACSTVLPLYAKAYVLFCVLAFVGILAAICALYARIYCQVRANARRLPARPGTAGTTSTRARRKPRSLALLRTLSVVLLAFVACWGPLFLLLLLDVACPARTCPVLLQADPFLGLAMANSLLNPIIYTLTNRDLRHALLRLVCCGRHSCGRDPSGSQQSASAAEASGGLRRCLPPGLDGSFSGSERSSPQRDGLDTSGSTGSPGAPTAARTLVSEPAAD
T4 sequence (Q99500 whole entry): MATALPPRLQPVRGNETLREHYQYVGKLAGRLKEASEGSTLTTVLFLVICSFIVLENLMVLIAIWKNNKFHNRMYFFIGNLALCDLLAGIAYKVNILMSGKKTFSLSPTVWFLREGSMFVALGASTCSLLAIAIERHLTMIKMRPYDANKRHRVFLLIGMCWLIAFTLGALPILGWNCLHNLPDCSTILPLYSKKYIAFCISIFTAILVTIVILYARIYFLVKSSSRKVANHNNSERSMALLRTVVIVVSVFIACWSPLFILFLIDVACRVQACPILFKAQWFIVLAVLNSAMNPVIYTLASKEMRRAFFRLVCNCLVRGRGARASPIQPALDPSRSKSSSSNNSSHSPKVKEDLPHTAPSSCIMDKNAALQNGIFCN
T2 sequence (P21453 whole entry): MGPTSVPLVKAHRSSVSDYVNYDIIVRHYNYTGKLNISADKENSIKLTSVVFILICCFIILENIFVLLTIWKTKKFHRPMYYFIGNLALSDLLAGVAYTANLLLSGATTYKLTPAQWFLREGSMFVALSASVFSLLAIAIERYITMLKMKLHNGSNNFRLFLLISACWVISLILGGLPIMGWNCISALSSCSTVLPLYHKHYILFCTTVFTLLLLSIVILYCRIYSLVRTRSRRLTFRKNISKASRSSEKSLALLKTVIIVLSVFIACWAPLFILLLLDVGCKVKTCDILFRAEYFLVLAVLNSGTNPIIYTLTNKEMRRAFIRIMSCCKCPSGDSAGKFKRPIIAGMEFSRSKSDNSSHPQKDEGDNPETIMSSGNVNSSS

Structure (SMILES)	EC50 (human S1PR4 receptor) [nM]	EC50 [1] [nM]	EC50 [2] [nM]	EC50 [3] [nM]	Aβ-induced migration of monocytes to sites of injury (monocytes)	Aβ-induced memory deficits [4]	nociceptive behavior in neuropathic pain models [5]
O=C(O)C1CC(N2CCc3nc(-c4ccc(OCc5cccc(F)c5)cc4)ncc3C2)C1 (centres unmarked) [Compound 52, 3-(2-(4-((3-fluorobenzyl)oxy)phenyl)-7,8-dihydropyrido[4,3-d]pyrimidin-6(5H)-yl)cyclobutanecarboxylic acid]	> 1000	> 1000	1000 to 10000	> 1000			
Cc1cc(OCc2ccccc2)ccc1-c1ccc2c(n1)CCN(CCC(=O)O)C2 [Compound 135, 3-(2-(4-(benzyloxy)-2-methylphenyl)-7,8-dihydro-1,6-naphthyridin-6(5H)-yl)propanoic acid]		> 1000	1000 to 10000	> 1000			
O=C(O)CCN1CCc2nc(-c3ccc(OCc4ccccc4)cc3C(F)(F)F)ccc2C1 [Compound 136, 3-(2-(4-(benzyloxy)-2-trifluoromethylphenyl)-7,8-dihydro-1,6-naphthyridin-6(5H)-yl)propanoic acid]		> 1000	1000 to 10000	> 1000			
O=C(O)CCN1CCc2nc(-c3ccc(OCc4ccccc4)c(F)c3)ccc2C1 [Compound 137, 3-(2-(4-(benzyloxy)-3-fluorophenyl)-7,8-dihydro-1,6-naphthyridin-6(5H)-yl)propanoic acid]		> 1000	100 to 1000	> 1000			
COc1cc(OCc2ccccc2)ccc1-c1ccc2c(n1)CCN(CCC(=O)O)C2 [Compound 138, 3-(2-(4-(benzyloxy)-2-methoxyphenyl)-7,8-dihydro-1,6-naphthyridin-6(5H)-yl)propanoic acid]		> 1000	1000 to 10000	> 1000			
Cc1cc(-c2ccc3c(n2)CCN(CCC(=O)O)C3)ccc1OCc1ccccc1 [Compound 139, 3-(2-(4-(benzyloxy)-3-methylphenyl)-7,8-dihydro-1,6-naphthyridin-6(5H)-yl)propanoic acid]		> 1000	100 to 1000	> 1000			
O=C(O)CCN1CCc2nc(-c3ccc(OCc4ccc(F)cc4)c(Cl)c3)ccc2C1 [Compound 140, 3-(2-(3-chloro-4-((4-fluorobenzyl)oxy)phenyl)-7,8-dihydro-1,6-naphthyridin-6(5H)-yl)propanoic acid]		> 1000	100 to 1000	> 1000			
O=C(O)CCN1CCc2nc(-c3ccc(OCc4ccccc4F)c(Cl)c3)ccc2C1 [Compound 141]		> 1000	100 to 1000	> 1000			
COc1cc(-c2ccc3c(n2)CCN(CCC(=O)O)C3)ccc1OCc1ccccc1 [Compound 142, 3-(2-(4-(benzyloxy)-3-methoxyphenyl)-7,8-dihydro-1,6-naphthyridin-6(5H)-yl)propanoic acid]		> 1000	1000 to 10000	> 1000			
O=C(O)CCN1CCc2nc(-c3ccc(OCc4ccccc4)c(C(F)(F)F)c3)ccc2C1 [Compound 143, 3-(2-(4-(benzyloxy)-3-trifluoromethylphenyl)-7,8-dihydro-1,6-naphthyridin-6(5H)-yl)propanoic acid]		> 1000	100 to 1000	> 1000			
CCCCCCCCc1ccc(CCC(N)(CO)CO)cc1 [FTY720/FIngolimod]					inhibits such migration	able to modulate Aβ-induced memory deficits	able to reduce nociceptive behavior
FC(F)(F)c1cccc(-c2noc(-c3cc(-c4ccccc4)c(C(F)(F)F)s3)n2)c1 [SEW2817]							fails to have an effect

Continued, in another order:

EC50 (human S1PR4 receptor) [nM]	EC50 [1] [nM]	EC50 [2] [nM]	EC50 [3] [nM]	Structure (SMILES)	Aβ-induced migration of monocytes to sites of injury (monocytes)	Aβ-induced memory deficits [4]	nociceptive behavior in neuropathic pain models [5]
	> 1000	100 to 1000	> 1000	O=C(O)CCN1CCc2nc(-c3ccc(OCc4ccccc4)c(Cl)c3)ccc2C1 [Compound 144, 3-(2-(4-(benzyloxy)-3-chlorophenyl)-7,8-dihydro-1,6-naphthyridin-6(5H)-yl)propanoic acid]			
	> 1000	1000 to 10000	> 1000	CC(CN1Cc2ccc(-c3ccc(OCc4ccccc4)cc3)nc2C1)C(=O)O (centres unmarked) [Compound 199, 3-(2-(4-(benzyloxy)phenyl)-5H-pyrrolo[3,4-b]pyridin-6(7H)-yl)-2-methylpropanoic acid]			
	> 1000	1000 to 10000	> 1000	CC(CC(=O)O)N1Cc2ccc(-c3ccc(OCc4ccccc4)cc3)nc2C1 (centres unmarked) [Compound 200, 3-(2-(4-(benzyloxy)phenyl)-5H-pyrrolo[3,4-b]pyridin-6(7H)-yl)butanoic acid]			
	> 1000	1000 to 10000	> 1000	O=C(O)CCN1Cc2ccc(-c3ccc(OCc4ccccc4)cc3)nc2C1 [Compound 202, 3-(2-(4-(benzyloxy)phenyl)-5H-pyrrolo[3,4-b]pyridin-6(7H)-yl)propanoic acid]			
	> 1000	100 to 1000	> 1000	CC(CN1CCc2cc(-c3ccc(OCc4ccccc4)cc3)nnc2C1)C(=O)O (centres unmarked) [Compound 206, 3-(3-(4-(benzyloxy)phenyl)-5,6-dihydropyrido[3,4-c]pyridazin-7(8H)-yl)-2-methylpropanoic acid]			
	> 1000	1000 to 10000	> 1000	O=C(O)CCN1CCc2cc(-c3ccc(OCc4ccccc4)cc3)nnc2C1 [Compound 207, 3-(3-(4-(benzyloxy)phenyl)-5,6-dihydropyrido[3,4-c]pyridazin-7(8H)-yl)propanoic acid]			
